Test results from patent publication US20110191897A1, “Plants Tolerant to HPPD Inhibitor Herbicides” (Bayer CropScience AG, priority 2009, published 2011).
Several values for one entry are separate records, joined by “and”; a condition that tells them apart may be missing. Equal values may be shown once.

Columns and labels:
[1] = tested on: T1 tobacco plants with Arabidopsis HPPD; experiment: Glasshouse spray trial, herbicidal damage; type: in vivo, Nicotiana tabacum; details: 100 gAl/ha, 7DAT
Experimental: (§1) T0 Tobacco plants containing either the gene from Arabidopsis coding for HPPD or the gene FMP37e from Blepharisma japonicum coding for FMP37 HPPD, mentioned above (Example 3), were transferred to the glasshouse (28/20° C.), to develop further and produce seeds. Those seeds were harvested and put on soil (ED73 mixed with sand and osmocote Pro) to germinate in the glasshouse (28/20° C.). Three to four weeks later, plantlets were transferred to single pots containing the soil mentioned above. Two weeks later, plants of a size 4-6 cm diameter were sprayed with either • tembotrione at 100 Al/ha prepared from a WP20 (wettable powder 20%) formulation supplemented with ammonium sulfate and methyl ester raps oil, or • isoxaflutole at 100 Al/ha prepared from a WP20 formulation supplemented with ammonium sulfate and methyl ester raps oil, or • bicyclopyrone at 100 gAl/ha prepared from a WP20 formulation supplemented with ammonium sulfate and methyl ester raps oil, or • “blind formulation” made from a WP20 formulation without active ingredient (Al) supplemented with ammonium sulfate and methyl ester raps oil, and were then transferred to a growth chamber with adequate light conditions (20000Lux).

[2] = tested on: T1 tobacco plants with FMP37e coding for the HPPD FMP37; experiment: Glasshouse spray trial, herbicidal damage; type: in vivo, Nicotiana tabacum; details: 100 gAl/ha, 7DAT
Experimental: as §1

[3] = tested on: transgenic soybean shoots (FMP37); experiment: Soybean shoot greening on isoxaflutole selection; type: in vivo; details: isoxaflutole as selection marker
Description: (§2) Soybean transformation is achieved using methods well known in the art, such as the one described using the Agrobacterium tumefaciens mediated transformation soybean half-seed explants described by Paz et al. (2006, Plant cell Rep. 25:206). Transformants were identified using Isoxaflutole as selection marker. The appearance of green shoots was observed, and documented as an indicator of tolerance to the herbicide isoxaflutole.

wild-type soybean shoots = experiment: Soybean shoot greening on isoxaflutole selection; type: in vivo; details: same amount of isoxaflutole
Description: as §2

For `CS(=O)(=O)c1cc(C(F)(F)F)ccc1C(=O)c1cnoc1C1CC1` [Isoxaflutole, (5-cyclopropyl-4-isoxazolyl)[2-(methylsulfonyl)-4-(trifluoromethyl)phenyl]methanone], the “% injury” value ([1]; line 252, individual plants) was 99%, the “% injury” value ([1]; line 327, individual plants) was 98% and 99% and 100% (4×) and the “% injury” value ([2]; line 113, individual plants) was 30% (4×) and 50%. The “% injury” value ([2]; line 207, individual plants) was 40%, the “share of transgenic tested shoots showing normal greening” value [3] was 1.5% and the appearance of shoots (wild-type soybean shoots) was “entirely bleached”.
